Consider 15 compounds from ChEMBL document CHEMBL1123782, “6-Alkoxy-N,N-disubstituted-2-pyridinamines as anticonvulsant agents” (1987).

By ED50 is commonly meant the dose that gives a 50% effect, or the effect in half of the subjects.

Common to all, as to assay type: functional
Experiment [1] relates to Mus musculus. The experiment in a line: Anticonvulsant activity expressed as minimum effective dose (MED) against tonic extension produced by maximal electroshock (MES) at 30 min post administration in mice. To be noted: 0.5 h, read-out: MED. On the technique in general: The maximal electroshock test induces tonic seizures with an electrical stimulus.
Experiment [2] concerns Mus musculus. The experiment can be described thus: Anticonvulsant activity expressed as minimum ataxic dose (MAD) at which mice fell off inverted screen at 30 min post administration.
In experiment [3] the test system is Mus musculus. The experiment in a line: Anticonvulsant activity was determined in mouse (administered intraperitoneally) tested for 2.0 hours using inverted wire mesh ataxia test. Particulars: ip.
For experiment [4], the system named is Mus musculus. The experiment can be described thus: Anticonvulsant activity was determined in mouse (administered intraperitoneally) tested for 2.0 hours using maximal electroshock test. To be noted: ip.
Experiment [5] concerns Mus musculus. The experiment in a line: Anticonvulsant activity was determined in mouse administered perorally tested for 2.0 hours using maximal electric shock test. Particulars: po.
Experiment [6] relates to Mus musculus. The experiment can be described thus: Anticonvulsant activity was determined in mouse (administered perorally) tested for 2.0 hours using maximal electric shock test (ADD program). To be noted: po.
The test system of experiment [7] is Mus musculus. The experiment can be described thus: Anticonvulsant activity was determined in mouse (administered intraperitoneally) tested for 2.0 hours using maximal electroshock test (ADD program). To be noted: ip.
Experiment [8] relates to Mus musculus. The experiment in a line: Anticonvulsant activity was determined in mouse (administered perorally) tested for 2.0 hours using maximal electroshock test. Particulars: po.
In experiment [9] the test system is Mus musculus. The experiment can be described thus: Anticonvulsant activity was determined in mouse (administered intraperitoneally) tested for 2.0 hours using maximal electric shock test (ADD program). To be noted: ip.
Experiment [10] deals with Mus musculus. The experiment can be described thus: Anticonvulsant activity was determined in mouse (administered perorally) tested for 2.0 hours using inverted wire mesh ataxia test. Particulars: po.
Experiment [11] has as its system Rattus norvegicus. The experiment in a line: Anticonvulsant activity was determined in rat (administered perorally) tested for 4 hours using ataxia test. Particulars: po.
Experiment [12] deals with Rattus norvegicus. The experiment in a line: Anticonvulsant activity was determined in rat (administered perorally) tested for 0.5 hours using maximal electroshock test. Particulars: po.
Experiment [13] relates to Mus musculus. The experiment in a line: Anticonvulsant activity was determined in mouse (administered intraperitoneally) tested for 2.0 hours using electroshock test. Particulars: ip.
Experiment [14] relates to Mus musculus. The experiment can be described thus: Anticonvulsant activity was determined in mouse (administered perorally) tested for 2.0 hours using rotarod ataxia test (ADD program). Particulars: po. (In general: The rotarod test checks motor coordination on a turning rod.)
Experiment [15] concerns Mus musculus. The experiment can be described thus: Anticonvulsant activity was determined in mouse (administered intraperitoneally) tested for 2.0 hours using rotarod ataxia test (ADD program). To be noted: ip.
The subject of experiment [16] is Mus musculus. The experiment can be described thus: Anticonvulsant activity was determined in mouse (administered perorally) tested for 0.5 hours using maximal electroshock test (ADD program). Particulars: po.
Experiment [17] has as its system Mus musculus. The experiment can be described thus: Anticonvulsant activity was determined in mouse (administered intraperitoneally) for 0.5 hours using maximal electroshock test (ADD program). Particulars: ip.
In experiment [18] the test system is Mus musculus. The experiment in a line: Anticonvulsant activity was determined in mouse (administered perorally) tested for 0.5 hours using inverted wire mesh ataxia test. To be noted: po.
Experiment [19] relates to Mus musculus. The experiment can be described thus: Anticonvulsant activity was determined in mouse (administered intraperitoneally) for 0.5 hours using rotarod ataxia test (ADD program). To be noted: ip.
Experiment [20] has as its system Mus musculus. The experiment can be described thus: Anticonvulsant activity was determined in mouse (administered perorally) tested for 1 hour using maximal electroshock test. To be noted: po.
Experiment [21] concerns Mus musculus. The experiment in a line: Anticonvulsant activity was determined in mouse (administered intraperitoneally) tested for 0.5 hours using rotarod ataxia test (ADD program). Particulars: ip.
The test system of experiment [22] is Mus musculus. The experiment can be described thus: Anticonvulsant activity was determined in mouse (administered intraperitoneally) tested for 0.5 hours using maximal electroshock test (ADD program). To be noted: ip.
The subject of experiment [23] is Mus musculus. The experiment can be described thus: Anticonvulsant activity was determined in mouse (administered perorally) for 0.5 hours using maximal electroshock test (ADD) program. Particulars: po.
The test system of experiment [24] is Mus musculus. The experiment in a line: Anticonvulsant activity was determined in mouse (administered perorally) tested for 1 hour using rotarod ataxia test (ADD program). To be noted: po.
In experiment [25] the test system is Mus musculus. The experiment in a line: Anticonvulsant activity was determined in mouse (administered intraperitoneally) tested for 0.5 hours using inverted wire mesh ataxia test. Particulars: ip.
In experiment [26] the test system is Mus musculus. The experiment can be described thus: Anticonvulsant activity was determined in mouse (administered intraperitoneally) for 0.5 hours using maximal electroshock test. Particulars: ip.
The subject of experiment [27] is Mus musculus. The experiment in a line: Anticonvulsant activity was determined in mouse (administered intraperitoneally) for 0.5 hours using inverted wire mesh ataxia test. Particulars: ip.
Experiment [28] deals with Mus musculus. The experiment can be described thus: Anticonvulsant activity was determined in mouse (administered intraperitoneally) tested for 0.5 hours using maximal electroshock test. Particulars: ip.

As to `c1cc(OC2CCCCC2)nc(N2CCNCC2)c1`, in the experiment on Mus musculus [1], the minimal effective dose was 30 mg/kg. The compound further had an MAD in the experiment on Mus musculus [2] of 10 mg/kg.
As for `CCOc1cccc(N2CCNCC2)n1`, the minimal effective dose with Mus musculus [1] came out at 30 mg/kg. This compound gave an MAD with Mus musculus [2] of 10 mg/kg.
Consider `Oc1cccc(N2CCNCC2)n1`, for which the minimal effective dose in the experiment on Mus musculus [1] is more than 300 mg/kg. In the experiment with Mus musculus [2], the MAD was more than 300 mg/kg.
Turning to `CC(C)COc1cccc(N2CCCCC2)n1`, the minimal effective dose with Mus musculus [1] is more than 300 mg/kg. Also, the MAD in the experiment with Mus musculus [2] is more than 300 mg/kg.
The like results for `CN(C)CCOc1cccc(N2CCNCC2)n1` were, in that order, more than 300 mg/kg and more than 300 mg/kg.
For `CC(C)COc1cccc(N2CCOCC2)n1`, in that order: 300 mg/kg and 300 mg/kg.
The like results for `CC(C)COc1cccc(N2CCN(C)CC2)n1` were, in that order, 30 mg/kg and 30 mg/kg.
Take `CC(C)COc1cccc(N2CCCNCC2)n1`: the minimal effective dose in the experiment on Mus musculus [1] is 30 mg/kg. This compound registered an MAD in the experiment with Mus musculus [2] of 100 mg/kg.
For `CC(C)COc1cccc(NCCN(C)C)n1`, in that order: 100 mg/kg and 300 mg/kg.
The like results for `CC(C)Oc1cccc(N2CCNCC2)n1` were, in that order, 30 mg/kg and less than 10 mg/kg.
The like results for `COc1cccc(N2CCNCC2)n1` were, in that order, 30 mg/kg and 10 mg/kg.
As for `O=C1NC(=O)C(c2ccccc2)(c2ccccc2)N1` [PHENYTOIN], the ED10 in the experiment with Mus musculus [3] amounted to 33 mg/kg; in the experiment on Mus musculus [4], 3.7 mg/kg; in the experiment on Mus musculus [7] it was 8.4 mg/kg; in the experiment on Mus musculus [8] it was 4.9 mg/kg; with Mus musculus [10], 50 mg/kg; in the experiment with Mus musculus [15], 60 mg/kg. Further, the median effective dose (ED50) with Mus musculus [3] was 45 mg/kg; with Mus musculus [5], 8.3 mg/kg; with Mus musculus [6], 9.8 mg/kg; in the experiment with Mus musculus [7], 10.4 mg/kg; in the experiment on Mus musculus [10] it was 78 mg/kg; with Rattus norvegicus [11], more than 3000 mg/kg. For the same compound, the ED50 in the experiment with Rattus norvegicus [12] stood at 33 mg/kg; in the experiment on Mus musculus [13] it was 7.4 mg/kg; in the experiment on Mus musculus [14], 95 mg/kg; in the experiment with Mus musculus [15] it was 71 mg/kg. Further, the ED90 in the experiment on Mus musculus [3] worked out at 63 mg/kg; with Mus musculus [4] it was 15 mg/kg; in the experiment on Mus musculus [8] it was 14 mg/kg; with Mus musculus [9], 13 mg/kg; in the experiment on Mus musculus [10], 125 mg/kg; with Mus musculus [15], 86 mg/kg.
Consider `c1cc(OCC2CC2)nc(N2CCNCC2)c1`, for which the minimal effective dose in the experiment with Mus musculus [1] is 10 mg/kg. The compound further had an MAD in the experiment with Mus musculus [2] of 10 mg/kg.
Turning to `CC(C)COc1cccc(N2CCNCC2)n1`, the ED10 with Mus musculus [16] amounted to 10.7 mg/kg; in the experiment on Mus musculus [18] it was 11 mg/kg; in the experiment on Mus musculus [20], 7.6 mg/kg; in the experiment with Mus musculus [21], 30 mg/kg; with Rattus norvegicus [11], 340 mg/kg; with Mus musculus [22] it was 5 mg/kg. Besides, the ED10 in the experiment with Mus musculus [24] was determined as 115 mg/kg; with Mus musculus [25], 6.6 mg/kg; with Rattus norvegicus [12], 6.6 mg/kg; in the experiment on Mus musculus [28], 5.4 mg/kg. For the same compound, the ED90 was determined as 35 mg/kg in the experiment on Mus musculus [16]; 114 mg/kg in the experiment on Mus musculus [18]; 17 mg/kg with Mus musculus [20]; 69 mg/kg with Mus musculus [21]; 830 mg/kg with Rattus norvegicus [11]; 11.2 mg/kg with Mus musculus [22]. Besides, the ED90 in the experiment with Mus musculus [24] worked out at 164 mg/kg; with Mus musculus [25] it was 39 mg/kg; in the experiment with Rattus norvegicus [12] it was 195 mg/kg; in the experiment on Mus musculus [28] it was 10.7 mg/kg. Moreover, the ED50 came out at 7.5 mg/kg with Mus musculus [17]; 35 mg/kg in the experiment with Mus musculus [18]; 46 mg/kg in the experiment on Mus musculus [19]; 11.1 mg/kg in the experiment on Mus musculus [20]; 525 mg/kg in the experiment with Rattus norvegicus [11]; 19 mg/kg in the experiment with Mus musculus [23]. In addition, the ED50 in the experiment with Mus musculus [24] is 139 mg/kg; in the experiment on Rattus norvegicus [12], 36 mg/kg; in the experiment on Mus musculus [26], 7.5 mg/kg; in the experiment on Mus musculus [27] it was 16 mg/kg. Further, the minimal effective dose with Mus musculus [1] is 10 mg/kg. Also, in the experiment with Mus musculus [2], the MAD was 30 mg/kg.
As to `c1cc(OCC2CCCCC2)nc(N2CCNCC2)c1`, the minimal effective dose with Mus musculus [1] was 30 mg/kg. The MAD in the experiment on Mus musculus [2] turned out to be 30 mg/kg.
